In one experiment the target is JAK2 (Homo sapiens (Human), UniProt O60674). As to the kind of experiment: JAK2 Ki determination assay (polyGT, 33P filter plate). The class given is biochemical. To be noted: Lineweaver-Burk; polyGT substrate, 33P readout. From the text:
For the determination of Ki, different amounts of inhibitor were mixed with the enzyme and the enzymatic reaction was followed as a function of ATP concentration. […] 0.025 mU of JAK2 (Invitrogen, PV4210) was used in the assay.

The next experiment concerns the target JAK3 (Homo sapiens (Human), UniProt P52333). Put plainly: JAK3 Ki determination assay. Format: biochemical. Particulars: Lineweaver-Burk; polyGT substrate, 33P readout. The source says: For the determination of Ki, different amounts of inhibitor were mixed with the enzyme and the enzymatic reaction was followed as a function of ATP concentration.
The target of experiment [1] is Recombinant human JAK3 catalytic domain (Homo sapiens (Human), UniProt P52333). Put plainly: JAK3 inhibition assay. Format: biochemical. Particulars: average ± standard error of the mean; 1 μM ATP. On the procedure: Recombinant human JAK3 catalytic domain (amino acids 781-1124; catalog number PV3855) was purchased from Invitrogen. 0.025 mU of JAK3 was incubated with 2.5 μg polyGT substrate (Sigma catalog number P0275) in kinase reaction buffer (25 mM Tris pH 7.5, 0.5 mM EGTA, 0.5 mM Na3VO4, 5 mM b-glycerolphosphate, 0.01% Triton X-100, 1 μM non-radioactive ATP, 0.25 μCi ^33P-gamma-ATP (GE Healthcare, catalog number AH9968) final concentrations) with or without 5 μL containing test compound or vehicle (DMSO, 1% final concentration), in a total volume of 25 μL, in a polypropylene 96-well plate (Greiner, V-bottom). After 105 min at 30° C., reactions were stopped by adding of 25 μL/well of 150 mM phosphoric acid. […] 40 μL/well of Microscint-20 was added, the top of the plates was sealed and readout was performed using the Topcount (Perkin Elmer). Kinase activity was calculated by subtracting counts per minute (cpm) obtained in the presence of a positive control inhibitor (10 μM staurosporine) from cpm obtained in the presence of vehicle. The ability of a test compound to inhibit this activity was determined as: Percentage inhibition=((cpm determined for sample with test compound present−cpm determined for sample with positive control inhibitor) divided by (cpm determined in the presence of vehicle−cpm determined for sample with positive control inhibitor))*100. […]

The test system of experiment [2] is JAK2 dependent pathway (GM-CSF induced IL-8) in human whole blood. As to the kind of experiment: Whole blood assay, GM-CSF stimulation, IL-8 ELISA. The class given is cell-based. To be noted: 6 blood donors, ± SEM, read-out: pIC50 for inhibition of GM-CSF induced increase of IL-8 (converted). The procedure: For GM-CSF stimulation, increase in interleukin-8 (IL-8) levels in plasma was measured using an IL-8 ELISA assay. Granulocyte macrophage-colony stimulating factor (GM-CSF)—induced interleukin 8 (IL-8) expression is a JAK2-mediated event.
The increase in IL-8 levels in plasma was measured using an IL-8 ELISA assay.
10 μg GM-CSF was dissolved in 100 μL H2O to obtain a 100 μg/mL stock solution. The stock solution was stored at −20° C.
A 3-fold dilution series of the test compound was prepared in DMSO (highest concentration: 10 mM).
Human blood was collected in heparinized tubes. The blood was divided in aliquots of 245 μL. […] The GM-CSF stock solution was diluted 100-fold in RPMI medium to obtain a 1 μg/mL work solution. […] The samples were incubated at 37° C. for 2 h.
The samples were centrifuged for 15 min at 1,000 g, 4° C. 100 μL of the plasma was harvested and stored at −80° C. until further use.
The Human IL-8 Chemiluminescent Immunoassay kit from R&D Systems (Cat. n°: Q8000B) was used to determine IL-8 levels.
Wash buffer was prepared by diluting 10× wash buffer in H2O. Working glo reagent was prepared by adding 1 part Glo Reagent 1 to 2 parts Glo Reagent B 15 min to 4 h before use.
100 μL assay diluent RD1-86 was added to each well. After that, 50 μL of sample (plasma) was added. […] Luminescence was measured (0.5 s/well read time).
In general terms: ELISA stands for enzyme-linked immunosorbent assay.

Structures are written as SMILES. Where two headings read alike, the source gives them in different places.

Chain of Recombinant human JAK3 catalytic domain (P52333 781-1124): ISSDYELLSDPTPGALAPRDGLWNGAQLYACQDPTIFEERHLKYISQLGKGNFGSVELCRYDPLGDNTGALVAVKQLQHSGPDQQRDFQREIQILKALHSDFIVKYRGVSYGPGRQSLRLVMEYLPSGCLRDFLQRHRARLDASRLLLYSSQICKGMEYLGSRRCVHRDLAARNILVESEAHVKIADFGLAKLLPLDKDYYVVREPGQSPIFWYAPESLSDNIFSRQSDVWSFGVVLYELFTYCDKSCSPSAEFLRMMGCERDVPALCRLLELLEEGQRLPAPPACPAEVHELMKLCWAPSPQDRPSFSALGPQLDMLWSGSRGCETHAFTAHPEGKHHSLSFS
Chain of JAK2 (O60674 849-1124): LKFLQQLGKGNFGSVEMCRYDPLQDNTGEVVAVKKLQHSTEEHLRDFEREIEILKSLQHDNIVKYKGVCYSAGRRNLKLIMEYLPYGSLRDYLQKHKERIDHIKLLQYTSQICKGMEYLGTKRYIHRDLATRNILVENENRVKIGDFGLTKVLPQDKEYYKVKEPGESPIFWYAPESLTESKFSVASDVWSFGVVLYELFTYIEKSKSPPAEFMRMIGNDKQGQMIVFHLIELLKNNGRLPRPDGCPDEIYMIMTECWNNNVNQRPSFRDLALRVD
Chain of JAK3 (P52333 whole entry, the tested form may be a part): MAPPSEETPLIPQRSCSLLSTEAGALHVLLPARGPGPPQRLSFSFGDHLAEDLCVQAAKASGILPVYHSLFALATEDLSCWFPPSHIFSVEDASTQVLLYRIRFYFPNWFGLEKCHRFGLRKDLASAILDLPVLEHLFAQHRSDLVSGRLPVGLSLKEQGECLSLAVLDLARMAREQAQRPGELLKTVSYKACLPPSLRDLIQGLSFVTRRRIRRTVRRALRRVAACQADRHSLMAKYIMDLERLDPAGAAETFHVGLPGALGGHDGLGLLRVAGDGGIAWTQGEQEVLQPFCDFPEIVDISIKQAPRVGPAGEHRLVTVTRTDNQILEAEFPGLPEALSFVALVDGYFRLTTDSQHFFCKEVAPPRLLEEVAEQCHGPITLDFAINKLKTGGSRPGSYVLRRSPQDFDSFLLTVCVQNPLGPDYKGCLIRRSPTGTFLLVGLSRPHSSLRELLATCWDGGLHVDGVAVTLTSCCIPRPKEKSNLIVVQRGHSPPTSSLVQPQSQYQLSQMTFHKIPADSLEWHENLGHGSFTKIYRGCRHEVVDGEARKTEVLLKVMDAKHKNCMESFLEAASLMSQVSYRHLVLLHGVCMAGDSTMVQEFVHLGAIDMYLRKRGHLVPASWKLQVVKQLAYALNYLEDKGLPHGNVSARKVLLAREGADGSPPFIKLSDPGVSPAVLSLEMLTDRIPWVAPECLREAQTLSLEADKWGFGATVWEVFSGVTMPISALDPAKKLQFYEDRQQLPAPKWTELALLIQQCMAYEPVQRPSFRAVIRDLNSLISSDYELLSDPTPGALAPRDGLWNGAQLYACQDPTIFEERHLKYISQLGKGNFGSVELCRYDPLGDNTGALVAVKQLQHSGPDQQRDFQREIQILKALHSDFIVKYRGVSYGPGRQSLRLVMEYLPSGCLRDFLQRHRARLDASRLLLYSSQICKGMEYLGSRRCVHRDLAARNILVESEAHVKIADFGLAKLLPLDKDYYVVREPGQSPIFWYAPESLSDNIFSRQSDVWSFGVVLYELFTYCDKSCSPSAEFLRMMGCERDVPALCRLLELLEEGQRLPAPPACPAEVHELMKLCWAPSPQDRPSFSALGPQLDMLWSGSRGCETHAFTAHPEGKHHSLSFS

On to `CC1(C)CN(C(=O)c2ccc(-c3cccc4nc(NC(=O)C5CC5)nn34)cc2)C1` [Compound 1, Cyclopropanecarboxylic acid{5-[4-(3,3-dimethyl-azetidine-1-carbonyl)-phenyl]-[1,2,4]triazolo[1,5-a]pyridin-2-yl}-amide], for which the Ki at JAK2 came out at 126 nM; at JAK3, 188 nM. The IC50 was 408 ± 62 nM in experiment [1]; 10700 nM in experiment [2] (additional data analysis protocol (R2 > 0.8, hill slope < 3)); 13500 nM in experiment [2] (human whole blood).

Usually Ki stands for a measure of affinity in units of concentration, obtained from inhibition or displacement. Low values mean a stronger hold on the target, high ones a looser hold on the target.

These data come from US8796457B2, “Compound useful for the treatment of degenerative and inflammatory diseases” (Galapagos NV, priority 2009, dated 2014).
